In article PMC4401734, “The Crystal Structure of D-Threonine Aldolase from Alcaligenes xylosoxidans Provides Insight into a Metal Ion Assisted PLP-Dependent Mechanism” (PLoS ONE, 2015):

What was measured:
[1] = target: T1, AxDTA; D-threonine aldolase from Alcaligenes xylosoxidans (Achromobacter xylosoxidans, UniProt A0A0J9X243); assay: X-ray crystallography, […] Å; assay type: binding; conditions: active site; two alternate conformations: covalent (internal aldimine with Lys59, ~40% occupancy) and non-covalent (~60%); Mn2+ nearby; crystals at pH 8.1
T1 construct: full-length, residues 1-379, cloned from genomic DNA into pET101/D-TOPO with native TGA stop (degenerate reverse primer), no tag; E. coli BL21 Star (DE3); treated by reductive lysine methylation before crystallisation (no methylation seen in density); residues 1-6 (A) and 1-7 (B) disordered; dimer in crystal
T1 sequence (A0A0J9X243 1-379): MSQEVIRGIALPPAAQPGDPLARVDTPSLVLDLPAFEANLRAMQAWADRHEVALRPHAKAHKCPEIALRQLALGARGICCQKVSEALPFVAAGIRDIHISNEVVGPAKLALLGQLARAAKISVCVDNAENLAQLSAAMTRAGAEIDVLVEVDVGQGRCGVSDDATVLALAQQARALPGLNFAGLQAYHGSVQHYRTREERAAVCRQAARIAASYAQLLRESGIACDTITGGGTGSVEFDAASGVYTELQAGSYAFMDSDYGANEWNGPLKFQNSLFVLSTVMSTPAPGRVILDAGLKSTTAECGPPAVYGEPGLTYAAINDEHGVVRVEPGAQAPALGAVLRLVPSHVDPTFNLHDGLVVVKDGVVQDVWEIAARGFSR

[2] = target: D-threonine aldolase from Alcaligenes xylosoxidans (Alcaligenes xylosoxidans IFO 12669); assay: crystal structure; X-ray, 1.5 Å, space group P2(1), two molecules per asymmetric unit; crystals from 200 mM sodium chloride, 100 mM Tris/HCl pH 8.1, 13% (w/v) PEG-3350

Compound	X-ray crystallography, 1.5 Å [1]	stoichiometry N [2]
Cc1ncc(COP(=O)(O)O)c(C=O)c1O [PLP, pyridoxal phosphate]	modeled by a molecule of pyridoxal phosphate (PLP) in two alternate conformations: covalently linked to Lys59	
D-threonine aldolase from Alcaligenes xylosoxidans (enzyme)		2
